Common to all, as to assay: NCI anticancer screen, dose series, 48 h
Test [1] relates to OVCAR-4 ovarian.
Test [2] has as its system A549 NSCLC.
The test system of test [3] is OVCAR-3 ovarian.
In test [4] the test system is HCT-116 colon.
For test [5], the system named is SNB-19 CNS.
Test [6] deals with NCI-H226 lung.
Test [7] concerns A498 renal.
In test [8] the test system is HOP-92 NSCLC.
For test [9], the system named is HL-60(TB) leukemia.
In test [10] the test system is SK-OV-3 ovarian.

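Test compounds were applied to cells in 96-well plates for 48 hours at 5 doses. At the GI50, growth is halved. TGI: concentration producing complete growth inhibition.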

The values that follow come from PubChem BioAssay (NCI).

As to `CN1CCN(Cc2ccc(NC(=O)c3cncc(C#Cc4cnc(N)c5ccc(F)cc45)c3)cc2C(F)(F)F)CC1`, the GI50 in [1] is 0.667 µM; in test [2] it was 2.04 µM; in test [3] it was 2.35 µM; in test [4], 1 µM; in [5], 4.39 µM; in test [6] it was 1.05 µM. Moreover, the GI50 in [7] was 0.902 µM; in test [8] it was 0.989 µM; in [9], 1.05 µM; in [10], 1.03 µM. The TGI in [1] is 4.23 µM; in test [2], 6.46 µM; in [3], 7.21 µM; in test [4], 5.04 µM; in [5] it was 8.96 µM; in test [6] it was 6.16 µM. The TGI in [7] was found to be 3.92 µM; in test [8], 5.58 µM; in [9] it was 4.42 µM; in test [10], 3.81 µM.
Consider `COc1cc2nc(-c3ccc(C(F)(F)F)cc3)cc(OCCCN3CCOCC3)c2cc1OC`, for which the GI50 was 10.3 µM in test [1]; 1.04 µM in test [2]; 3.72 µM in test [3]; 0.583 µM in test [4]; 2.91 µM in test [5]; 0.406 µM in [6]. In addition, the GI50 in test [7] was 1.51 µM; in test [8] it was 1 µM; in test [9], 9.58 µM; in test [10], 5.04 µM. The TGI in test [1] came out at 23.2 µM; in test [2], 20 µM; in test [3], 18.4 µM; in [4] it was 13.5 µM; in [5], 13.6 µM; in [6], 4.87 µM. In addition, the TGI in test [7] stood at 4.52 µM; in test [8], 4.66 µM; in [9] it was 47.3 µM; in test [10], 22.4 µM.
As for `CCCCNc1nc(NC(C)(C)C)nc(NC(C)(C)C)n1`, the GI50 in [1] was 3.03 µM; in test [2] it was 4.41 µM; in test [3] it was 12.6 µM; in test [4], 2.44 µM; in test [5], 17.6 µM; in [6] it was 6.44 µM. The GI50 was 2.98 µM in [7], 1.38 µM in test [8], 15.7 µM in test [9] and 19.4 µM in test [10]. Further, the TGI was above 100 µM in test [1]; above 100 µM in test [2]; above 100 µM in test [3]; 29.6 µM in [4]; above 100 µM in test [5]; above 100 µM in test [6]. Further, the TGI in test [7] was 50.4 µM; in [8], 24.2 µM; in test [9], above 100 µM; in test [10] it was above 100 µM.
Regarding `Clc1nc(Oc2ccccc2)nc(-c2cn(-c3ccccc3)c3ccccc23)n1`, the GI50 in test [1] is 6.4 µM; in test [2] it was 27.4 µM; in test [3], 3.37 µM; in test [4] it was 3.64 µM; in test [5] it was 19 µM; in test [6] it was 33.5 µM. The GI50 is above 47.6 µM in test [7], 4.07 µM in test [8], 0.773 µM in test [9] and 18.9 µM in test [10]. Besides, the TGI in [1] is 18.7 µM; in [2], above 67.4 µM; in test [3], 10.2 µM; in test [4], 11.8 µM; in test [5], 35.8 µM; in test [6], above 62.2 µM. Also, the TGI in test [7] is above 100 µM; in test [8], 20.7 µM; in test [10], 40.3 µM.
For the compound `CCOC(=O)[C@@H](C)C[C@H](Cc1ccccc1)NC(=O)c1csc([C@@H](C[C@H](C(C)C)N(C)C(=O)[C@@H](NC(=O)[C@H]2C[C@H](O[Si](C)(C)C(C)(C)C)CCN2C)C(C)C)OC(C)=O)n1`, the GI50 in test [1] was 0.674 µM; in test [2], 0.379 µM; in test [3], 0.192 µM; in test [4], 0.246 µM; in [5], 0.299 µM; in test [6] it was 0.493 µM. Also, the GI50 is 0.167 µM in test [7], 0.181 µM in test [8], 0.249 µM in test [9] and 0.198 µM in test [10]. For the same compound, the TGI in [1] was above 8.33 µM; in test [2], above 8.33 µM; in test [3], above 2.07 µM; in test [4] it was 1.63 µM; in test [5] it was above 8.33 µM; in [6], above 4.18 µM. The TGI in test [7] was 0.89 µM; in test [8], 6.06 µM; in [9] it was 0.896 µM; in test [10] it was above 8.33 µM.
Regarding `CCN(CC)CCCCC1CCN(CC(=O)N2CC(C)C(=O)Nc3ccccc32)CC1` (centres undefined), the TGI in test [1], in [2], in [3], in [4], in [5] and in [6] was above 100 µM throughout. For the same compound, the TGI in test [7], in [8], in test [9] and in test [10] was above 100 µM each time.
